Measurements reported in patent publication US11512073B2, “Benzimidazole derivatives, pharmaceutical composition comprising the same, and use thereof” (Chongqing University of Arts and Sciences, priority 2020, dated 2022).
Residues, ends and D or L forms follow the SMILES beside them. *: point of attachment. Cbz = O=C(OCc1ccccc1)*; CH2F = FC*

System: TNBC cells
Test: MTT cell viability assay, statements for both TNBC lines
Format: cell-based, Human
Settings: Z-VAD-FMK 20 μM with compound 7a 20 μM, 48 h
Protocol: Compounds were dissolved in a hydrous dimethylsulfoxide (DMSO, Life technologies) to obtain a 50 mM stock solution, which was then added to the culture medium at a concentration range of 6.25-100 μM. […] Z-VAD-FMK was purchased from Selleckchem (Houston, Tex.); The reagents including 3-(4,5-dimethylthiazol-2-yl)-2,5-diphenyltetrazolium bromide (MTT), dimethyl sulfoxide (DMSO), penicillin, streptomycin, propidium iodide (PI) were purchased from Sigma-Aldrich (MO, USA); All the primary antibodies used in this study were from Cell Signaling Technology (MA, USA) and the secondary antibodies were from LI-COR Biosciences (NE, USA).
Human triple negative breast cancer cell lines MDA-MB-231 and MDA-MB-468 were purchased from the American Type Culture Collection (ATCC, VA, USA). These cells were cultured in high-glucose DMEM (Gibco, USA) supplemented with 10% fetal bovine serum (FBS, Gibco) and 1% penicillin/streptomycin (Gibco) at 37° C. in a humidified incubator containing 5% CO2.
The antiproliferative activity of compounds was measured with the MTT assay. […] The absorbance value was determined at 570 nm using a microplate reader (Bio-Tek, VT, USA). Data were analyzed by GraphPad Prism 6. […]

In the case of `COC(=O)C[C@H](NC(=O)[C@H](C)NC(=O)[C@@H](NC(=O)OCc1ccccc1)C(C)C)C(=O)CF` [Z-VAD-FMK, reference compound] (Cbz-Val-Ala-Asp(OMe)-CH2F), the “rescue of compound 7a-induced apoptosis (cell viability)” value is reported as “partially rescue cell apoptosis induced by compound 7a”.
